Measurements published in patent US12201635B2, “Multi-target kinase inhibitor, pharmaceutical composition, and preparation method for multi-target kinase inhibitor and use thereof” (GUANGZHOU LIUSHUN BIOTECHNOLOGY CO., LTD., priority 2019, dated 2025).

Assays:
PDGFRA = PDGFRA (Homo sapiens, UniProt P16234); assay: Z'-LYTE kinase inhibition assay, PDGFRA; assay type: biochemical
Protocol: (§1) 1. The compounds to be detected were accurately weighed and added into DMSO to form stock solutions, which were then diluted to desired concentrations with a buffer to give solutions of the compounds to be detected.
(§2) 2. An RET or VEGFR3 or PDGFRA kinase solution, corresponding substrate solutions of Z′-LYTE, a buffer or a compound to be detected and ATP were added into a 384 reaction vessel, and reacted at room temperature for 1 h.
(§3) 3. To each well was added a fluorescence enhancer, followed by incubation at room temperature for 1 h.
(§4) 4. Data were read separately using a fluorescence analyzer.
(§5) 1. The relative inhibitory rate for each well was calculated according to a formula.
(§6) 2. Active samples were diluted and tested for relative inhibitory rates, and the inhibitory rates IC50 were calculated by plotting in the software Xlfit.

[1] = test system: KYSE 410 esophageal cancer; assay: In vivo anti-tumor activity, nude mouse tumor model of KYSE 410 esophageal cancer; details: KYSE 410 esophageal cancer mice
Description: (§7) In this example, the in vivo anti-tumor activity (liver cancer/esophageal cancer) of the multi-target kinase inhibitor [Compound (I-1)] was investigated according to the requirements in Guidelines for Pharmacodynamics of Anti-tumor Drugs. The experimental procedures and results are as follows:
(§8) Tumor models of nude mice were established using […] heptoma cells and KYSE 410 esophageal cancer cells that meet modeling conditions. The modeled mice were divided into 5 groups: a model group, a Compound (I-1) 5 mg/kg group, a Compound (I-1) 10 mg/kg group, a Compound (I-1) 20 mg/kg group, and a positive control group (sorafenib or cabozantinib). Administration was performed from the day of grouping that was counted as day 1 and for 21 consecutive days, and the 21st day was counted as day21. Tumor volumes were measured twice a week during the period of administration for statistical test.

VEGFR3 = VEGFR3 (Homo sapiens, UniProt P35916); assay: Z'-LYTE kinase inhibition assay, VEGFR3; assay type: biochemical
VEGFR3, sequence (P35916 25-1363): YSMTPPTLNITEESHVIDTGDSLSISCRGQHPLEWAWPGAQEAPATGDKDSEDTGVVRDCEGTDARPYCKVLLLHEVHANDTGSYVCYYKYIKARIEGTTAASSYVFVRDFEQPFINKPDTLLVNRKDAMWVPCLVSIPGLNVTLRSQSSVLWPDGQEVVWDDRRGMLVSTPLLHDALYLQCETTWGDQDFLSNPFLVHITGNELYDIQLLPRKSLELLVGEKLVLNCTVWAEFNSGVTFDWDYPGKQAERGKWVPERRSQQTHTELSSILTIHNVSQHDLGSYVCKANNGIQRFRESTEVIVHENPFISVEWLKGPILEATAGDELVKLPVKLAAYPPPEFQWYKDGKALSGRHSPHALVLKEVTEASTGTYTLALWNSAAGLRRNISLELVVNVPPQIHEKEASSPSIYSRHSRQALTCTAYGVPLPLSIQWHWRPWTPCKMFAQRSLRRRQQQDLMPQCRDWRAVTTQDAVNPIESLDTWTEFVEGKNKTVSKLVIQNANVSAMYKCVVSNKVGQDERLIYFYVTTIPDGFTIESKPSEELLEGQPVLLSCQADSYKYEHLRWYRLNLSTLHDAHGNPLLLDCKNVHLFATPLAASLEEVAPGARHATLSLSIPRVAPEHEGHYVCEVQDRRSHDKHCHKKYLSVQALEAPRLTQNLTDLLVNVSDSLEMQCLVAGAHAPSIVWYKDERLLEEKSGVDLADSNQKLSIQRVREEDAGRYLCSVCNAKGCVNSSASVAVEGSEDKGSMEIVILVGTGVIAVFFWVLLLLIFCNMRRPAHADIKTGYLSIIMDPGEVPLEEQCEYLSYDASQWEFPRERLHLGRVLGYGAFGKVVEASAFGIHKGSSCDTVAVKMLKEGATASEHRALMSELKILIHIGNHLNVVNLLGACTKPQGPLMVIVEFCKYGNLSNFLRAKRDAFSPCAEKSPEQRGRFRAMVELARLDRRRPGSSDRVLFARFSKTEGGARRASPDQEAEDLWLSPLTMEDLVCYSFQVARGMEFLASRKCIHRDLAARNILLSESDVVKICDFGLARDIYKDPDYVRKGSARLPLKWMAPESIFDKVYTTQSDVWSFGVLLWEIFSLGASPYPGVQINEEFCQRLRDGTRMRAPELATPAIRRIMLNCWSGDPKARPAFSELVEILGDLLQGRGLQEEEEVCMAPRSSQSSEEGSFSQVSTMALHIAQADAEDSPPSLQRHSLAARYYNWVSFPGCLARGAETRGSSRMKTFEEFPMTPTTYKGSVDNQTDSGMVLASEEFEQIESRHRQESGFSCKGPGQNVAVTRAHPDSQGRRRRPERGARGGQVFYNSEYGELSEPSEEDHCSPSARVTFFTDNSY
Protocol: as §1, §2, §3, §4, §5, §6

RET = RET (Homo sapiens, UniProt P07949); assay: Z'-LYTE kinase inhibition assay, RET; assay type: biochemical
RET, sequence (P07949 29-1114): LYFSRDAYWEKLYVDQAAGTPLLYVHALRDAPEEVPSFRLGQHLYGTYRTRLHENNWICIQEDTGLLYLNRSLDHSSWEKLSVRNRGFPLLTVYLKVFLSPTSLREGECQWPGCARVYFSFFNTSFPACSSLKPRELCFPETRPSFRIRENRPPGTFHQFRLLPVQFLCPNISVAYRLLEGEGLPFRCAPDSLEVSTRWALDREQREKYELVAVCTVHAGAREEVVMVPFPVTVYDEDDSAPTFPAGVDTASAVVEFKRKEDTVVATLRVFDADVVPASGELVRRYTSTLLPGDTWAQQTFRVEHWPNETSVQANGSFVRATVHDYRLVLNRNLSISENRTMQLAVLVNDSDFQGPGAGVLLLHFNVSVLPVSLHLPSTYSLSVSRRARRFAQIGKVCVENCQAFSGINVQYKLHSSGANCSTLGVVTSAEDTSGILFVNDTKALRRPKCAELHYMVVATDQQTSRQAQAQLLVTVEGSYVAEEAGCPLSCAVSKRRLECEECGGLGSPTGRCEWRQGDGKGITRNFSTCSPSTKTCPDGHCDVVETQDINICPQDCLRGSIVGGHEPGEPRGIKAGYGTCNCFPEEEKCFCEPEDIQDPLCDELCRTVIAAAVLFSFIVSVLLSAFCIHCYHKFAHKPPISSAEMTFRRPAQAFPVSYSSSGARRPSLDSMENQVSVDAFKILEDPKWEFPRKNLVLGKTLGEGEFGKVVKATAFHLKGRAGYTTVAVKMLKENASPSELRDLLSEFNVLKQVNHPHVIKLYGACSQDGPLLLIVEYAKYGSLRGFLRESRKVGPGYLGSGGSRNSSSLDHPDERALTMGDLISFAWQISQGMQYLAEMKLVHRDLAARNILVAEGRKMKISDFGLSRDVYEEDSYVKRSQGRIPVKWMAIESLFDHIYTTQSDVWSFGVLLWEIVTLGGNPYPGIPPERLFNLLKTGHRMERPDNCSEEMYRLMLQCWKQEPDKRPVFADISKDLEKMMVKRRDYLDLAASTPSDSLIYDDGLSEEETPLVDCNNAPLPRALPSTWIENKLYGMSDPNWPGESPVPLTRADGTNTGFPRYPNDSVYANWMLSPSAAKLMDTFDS
Protocol: as §1, §2, §3, §4, §5, §6

SMMC-7721 hepatoma = assay: In vivo anti-tumor activity, nude mouse tumor model of SMMC-7721 liver cancer; details: SMMC-7721 liver cancer mice
Description: as §7, §8

[2] = 5, 10 and 20 mg/kg, 21 consecutive days, day21 ANOVA P<0.0001
[3] = 10 and 20 mg/kg, positive control sorafenib or cabozantinib

PDGFRA, sequence (P16234 24-1089): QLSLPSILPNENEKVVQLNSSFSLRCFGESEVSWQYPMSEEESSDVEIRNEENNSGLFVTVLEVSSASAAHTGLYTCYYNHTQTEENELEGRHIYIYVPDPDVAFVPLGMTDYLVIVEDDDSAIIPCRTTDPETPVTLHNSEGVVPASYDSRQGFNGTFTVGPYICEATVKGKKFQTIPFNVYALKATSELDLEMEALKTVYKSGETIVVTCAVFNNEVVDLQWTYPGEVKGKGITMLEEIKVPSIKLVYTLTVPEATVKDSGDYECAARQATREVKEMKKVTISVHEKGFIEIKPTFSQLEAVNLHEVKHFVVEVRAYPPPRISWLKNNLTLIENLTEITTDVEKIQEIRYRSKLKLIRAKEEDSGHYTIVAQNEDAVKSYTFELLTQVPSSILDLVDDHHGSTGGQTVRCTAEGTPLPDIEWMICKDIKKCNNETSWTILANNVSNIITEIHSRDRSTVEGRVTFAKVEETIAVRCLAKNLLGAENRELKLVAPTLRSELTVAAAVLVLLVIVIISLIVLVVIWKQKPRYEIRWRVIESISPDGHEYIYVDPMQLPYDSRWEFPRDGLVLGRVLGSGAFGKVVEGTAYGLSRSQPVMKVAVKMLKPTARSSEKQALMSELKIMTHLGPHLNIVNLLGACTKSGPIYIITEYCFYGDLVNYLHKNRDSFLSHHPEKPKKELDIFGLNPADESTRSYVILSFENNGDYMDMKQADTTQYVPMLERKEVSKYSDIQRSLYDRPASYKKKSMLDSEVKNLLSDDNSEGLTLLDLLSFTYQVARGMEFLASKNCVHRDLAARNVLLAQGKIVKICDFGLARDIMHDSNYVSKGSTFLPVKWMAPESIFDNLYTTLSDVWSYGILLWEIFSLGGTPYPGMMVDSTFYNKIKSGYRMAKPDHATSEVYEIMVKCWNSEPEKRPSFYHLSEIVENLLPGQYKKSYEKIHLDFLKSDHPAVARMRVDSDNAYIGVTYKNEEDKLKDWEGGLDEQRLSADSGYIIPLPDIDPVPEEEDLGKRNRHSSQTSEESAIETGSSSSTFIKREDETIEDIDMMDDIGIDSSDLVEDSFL

SMILES | IC50 (PDGFRA) [nM] | IC50 (VEGFR3) [nM] | IC50 (RET) [nM] | Tumor volume compared with the model group [1, 2] | Tumor volume compared with the positive control group [1, 3] | Tumor volume compared with the model group (SMMC-7721 hepatoma; [2]) | Tumor volume compared with the positive control group (SMMC-7721 hepatoma; [3])
COc1cc2ncnc(Oc3ccc(NC(=O)NC4CC4)cc3)c2cc1OC [Compound I-1] | 60 | 30 | 12 | lower tumor volumes | lower tumor volumes | lower tumor volumes | lower tumor volumes
COc1cc2ncnc(Oc3ccc(NC(=O)NC4CCC4)cc3)c2cc1OC [Compound I-2] | 308 | 16 | 37 |  |  |  | 
COc1cc2ncnc(Oc3ccc(NC(=O)NC4CCCC4)cc3)c2cc1OC [Compound I-3] | 62 | 9 | 85 |  |  |  | 

Further lines, with some results ahead:

IC50 (PDGFRA) [nM] | IC50 (VEGFR3) [nM] | IC50 (RET) [nM] | SMILES | Tumor volume compared with the model group [1, 2] | Tumor volume compared with the positive control group [1, 3] | Tumor volume compared with the model group (SMMC-7721 hepatoma; [2]) | Tumor volume compared with the positive control group (SMMC-7721 hepatoma; [3])
52 | 65 | 26 | C=CNC(=O)Nc1ccc(Oc2ncnc3cc(OC)c(OC)cc23)cc1 [Compound I-4] |  |  |  | 
124 | 213 | 102 | COc1cc2ncnc(Oc3ccc(NC(=O)N4CCCC4)cc3)c2cc1OC [Compound I-5] |  |  |  | 
632 | 328 | 251 | COc1cc2ncnc(Oc3ccc(NC(=O)N4CCCCC4)cc3)c2cc1OC [Compound I-6] |  |  |  | 
